One may read the IC50 as the concentration needed to halve the response being measured.

This is an account of results in patent US20240398828A1, “HETERO-ATOM CONTAINING COMPOUNDS AND USES THEREOF” (Kumquat Biosciences Inc., priority 2021, published 2024).

The target in assay [1] is T1, PTPN1 (i.e., PTP1B) (Homo sapiens, UniProt P18031).
T1 sequence (P18031 1-435): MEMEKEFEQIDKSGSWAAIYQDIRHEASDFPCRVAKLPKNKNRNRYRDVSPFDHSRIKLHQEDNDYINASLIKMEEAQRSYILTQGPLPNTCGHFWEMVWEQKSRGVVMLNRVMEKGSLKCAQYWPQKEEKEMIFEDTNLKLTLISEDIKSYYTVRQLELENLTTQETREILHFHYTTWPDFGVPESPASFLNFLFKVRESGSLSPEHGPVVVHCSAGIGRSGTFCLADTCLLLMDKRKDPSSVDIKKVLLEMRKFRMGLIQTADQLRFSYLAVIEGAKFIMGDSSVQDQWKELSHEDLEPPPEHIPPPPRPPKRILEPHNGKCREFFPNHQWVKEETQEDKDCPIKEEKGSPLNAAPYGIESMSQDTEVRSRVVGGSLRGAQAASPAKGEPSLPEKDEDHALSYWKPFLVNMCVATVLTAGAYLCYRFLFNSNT
Briefly: Phosphatase activity assay (DiFMUP substrate), PTP1B. It counts as biochemical. To be noted: compounds binned ≤1 uM or >1 uM. The procedure:
(§1) The selectivity and potency of a small molecule PTPN2 inhibitor as provided herein against one or more protein tyrosine phosphatase (PTP) enzymes, and specifically against PTPN2, is assessed in various ways. The one or more PTP enzymes comprise Mycobacterium protein tyrosine phosphatase A (mPTPA), Mycobacterium protein tyrosine phosphatase B (mPTPB), PTPN1 (i.e., PTP1B), PTPN2 (i.e., TC-PTP), PTPN22 (i.e., LYP), SHP-1, SHP-2, FAP-1, Meg2, HePTP, Laforin, VHX, VHR, LMWPTP, Cdc14A, LAR, CD45, PTPRG, a fragment thereof, a variant thereof, and a combination thereof. Selectivity and potency of a small molecule PTPN2 inhibitor is evaluated using a PTP activity inhibition assay. The assay is performed using a buffer comprising 50 mM HEPES buffer pH 7.5, 150 mM NaCl, 0.5 mM EDTA, 1 mM DTT, 0.001% Tween-20.
(§2) The assay is performed using a phosphated substrate, e.g., 10 mM 6,8-Difluoro-4-Methylumbelliferyl Phosphate (DIFMUP) that is stored at −20° C. Alternatively or in addition to, the assay is performed using other phosphated substrate (e.g., fluorescein diphosphate). Each PTP enzyme is diluted in the assay buffer
(§3) The assay can be carried out at room temperature in multiplate format, e.g., using 384 well plates. A small molecule PTPN2 inhibitor dissolved in DMSO at one of 10 concentrations from a serial dilution or DMSO alone for control is added to each well. A mixture of the assay buffer comprising PTP enzyme (e.g., 0.025 ng/ul PTPN2) is added to each well and mixed for approximately 2 minutes. The reaction is initiated by adding DiFMUP diluted in the assay buffer to a final concentration of approximately 45 μM DiFMUP in PTPN2 assay. For each PTP enzyme, DiFMUP is added at the Km (Michaelis constant) of the enzyme that had been independently determined. The phosphatase activity of the PTP enzyme is assessed by monitoring appearance of a fluorescent product (6,8-difluoro-7-hydroxyl-4-coumarin (DiFMU) from DiFMUP) continuously for about 15 to 30 minutes, using the INFINITE M1000Pro plate reader (Tecan) with excitation at 360 nm and emission at 450 nm (cutoff filter at 435 nm) for DiFMU. Each assay is performed at least in duplicate. The rate (e.g., the initial rate) of DiFMU formation is plotted against the concentration of the small molecule PTPN2 inhibitor, and the data is fitted (e.g., using a 4-parameter equation) to determine the inflection point of the fit as the IC50 of the small molecule PTPN2 inhibitor for a specific enzyme. Utilizing this assay, the ability of the compounds in Table 2 to inhibit PTPN2 and PTP1B has been assessed. Table 3 summarizes the IC50 values.

Assay [2] has as its target T2, PTPN2 (i.e., TC-PTP) (Homo sapiens, UniProt P17706).
T2 sequence (P17706 1-415): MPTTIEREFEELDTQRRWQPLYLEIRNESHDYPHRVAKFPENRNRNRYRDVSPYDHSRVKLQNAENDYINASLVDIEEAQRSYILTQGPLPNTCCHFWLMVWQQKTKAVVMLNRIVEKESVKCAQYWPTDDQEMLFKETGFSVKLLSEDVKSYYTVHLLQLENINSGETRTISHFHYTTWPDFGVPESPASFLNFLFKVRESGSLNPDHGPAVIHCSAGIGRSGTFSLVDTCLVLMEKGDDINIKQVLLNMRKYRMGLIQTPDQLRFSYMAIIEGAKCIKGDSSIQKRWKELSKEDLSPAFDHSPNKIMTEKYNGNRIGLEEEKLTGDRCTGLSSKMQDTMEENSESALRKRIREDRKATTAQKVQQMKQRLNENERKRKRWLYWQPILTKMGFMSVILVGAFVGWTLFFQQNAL
Briefly: Phosphatase activity assay (DiFMUP substrate), PTPN2. It counts as biochemical. To be noted: compounds binned ≤1 uM or >1 uM. The procedure: as §1, §2, §3

Take `O=C1CN(c2c(O)ccc(-c3cn(-c4cc(F)ccc4F)cn3)c2F)S(=O)(=O)N1` [Compound 303, 5-(3-(1-(2,5-difluorophenyl)-1H-imidazol-4-yl)-2-fluoro-6-hydroxyphenyl)-1,2,5-thiadiazolidin-3-one 1,1-dioxide]: the IC50 in assay [1] and in assay [2] was not above 1000 nM in each case.

Turning to `O=C1CN(c2c(O)ccc(-c3cc(N4CCC(O)C4)n[nH]3)c2F)S(=O)(=O)N1` (centres unmarked) [Compound 448, 5-(2-fluoro-6-hydroxy-3-(3-(3-hydroxypyrrolidin-1-yl)-1H-pyrazol-5-yl)phenyl)-1,2,5-thiadiazolidin-3-one 1,1-dioxide], the IC50 in assay [1] and in assay [2] was not above 1000 nM in each case.

As to `CC(C)CCn1cc(-c2cc(O)cc(N3CC(=O)NS3(=O)=O)c2)cn1` [Compound 184, 5-(3-hydroxy-5-(1-isopentyl-1H-pyrazol-4-yl)phenyl)-1,2,5-thiadiazolidin-3-one 1,1-dioxide], the IC50 in assay [1] and in assay [2] was more than 1000 nM in each case.

In the case of `O=C1CN(c2c(O)ccc(-c3cn(CC4CC4)nc3F)c2F)S(=O)(=O)N1` [Compound 233, 5-(3-(1-(cyclopropylmethyl)-3-fluoro-1H-pyrazol-4-yl)-2-fluoro-6-hydroxyphenyl)-1,2,5-thiadiazolidin-3-one 1,1-dioxide], the IC50 in assay [1] and in assay [2] was not above 1000 nM each time.

Take `Cn1cc(-c2ccc(O)c(N3CC(=O)NS3(=O)=O)c2F)ccc1=O` [Compound 106, 5-(2-fluoro-6-hydroxy-3-(1-methyl-6-oxo-1,6-dihydropyridin-3-yl)phenyl)-1,2,5-thiadiazolidin-3-one 1,1-dioxide]: the IC50 in assay [1] and in assay [2] was not above 1000 nM each time.

Consider `O=C1CN(c2c(O)ccc(-c3cc(N4CCCOCC4)n[nH]3)c2F)S(=O)(=O)N1` [Compound 344, 5-(3-(3-(1,4-oxazepan-4-yl)-1H-pyrazol-5-yl)-2-fluoro-6-hydroxyphenyl)-1,2,5-thiadiazolidin-3-one 1,1-dioxide], for which the IC50 in assay [1] and in assay [2] was not above 1000 nM in each case.

Turning to `O=C1CN(c2c(O)ccc(-c3cc(C4CC4(F)F)n[nH]3)c2F)S(=O)(=O)N1` (centres unmarked) [Compound 364, 5-(3-(3-(2,2-difluorocyclopropyl)-1H-pyrazol-5-yl)-2-fluoro-6-hydroxyphenyl)-1,2,5-thiadiazolidin-3-one 1,1-dioxide], the IC50 in assay [1] and in assay [2] was not above 1000 nM in each case.

Regarding `Cc1cn(-c2ccc(O)c(N3CC(=O)NS3(=O)=O)c2F)nc1O` [Compound 299, 5-(2-fluoro-6-hydroxy-3-(3-hydroxy-4-methyl-1H-pyrazol-1-yl)phenyl)-1,2,5-thiadiazolidin-3-one 1,1-dioxide], the IC50 in assay [1] and in assay [2] was not above 1000 nM in each case.

For the compound `Cn1cc(-c2ccc(O)c(N3CC(=O)NS3(=O)=O)c2F)c(C(F)(F)F)n1` [Compound 192, 5-(2-fluoro-6-hydroxy-3-(1-methyl-3-(trifluoromethyl)-1H-pyrazol-4-yl)phenyl)-1,2,5-thiadiazolidin-3-one 1,1-dioxide], the figures for the IC50 in assay [1] and in assay [2] were not above 1000 nM and more than 1000 nM, respectively.

For `COC(=O)n1nc(-c2ccc(O)c(N3CC(=O)NS3(=O)=O)c2F)cc1C1CC1` [Compound 536, methyl 5-cyclopropyl-3-(3-(1,1-dioxido-4-oxo-1,2,5-thiadiazolidin-2-yl)-2-fluoro-4-hydroxyphenyl)-1H-pyrazole-1-carboxylate], the IC50 in assay [1] and in assay [2] was not above 1000 nM throughout.

Take `O=C1CN(c2c(O)ccc(-c3cn(CC4CCCCC4)nc3F)c2F)S(=O)(=O)N1` [Compound 385, 5-(3-(1-(cyclohexylmethyl)-3-fluoro-1H-pyrazol-4-yl)-2-fluoro-6-hydroxyphenyl)-1,2,5-thiadiazolidin-3-one 1,1-dioxide]: the IC50 in assay [1] and in assay [2] was not above 1000 nM throughout.

With `CS(=O)(=O)NC1CC=C(c2ccc(O)c(N3CC(=O)NS3(=O)=O)c2F)CC1` (centres unmarked) [Compound 363, N-(3′-(1,1-dioxido-4-oxo-1,2,5-thiadiazolidin-2-yl)-2′-fluoro-4′-hydroxy-2,3,4,5-tetrahydro-[1,1′-biphenyl]-4-yl)methanesulfonamide], the IC50 in assay [1] and in assay [2] was not above 1000 nM each time.

For the compound `Nc1nc2c(-c3ccc(O)c(N4CC(=O)NS4(=O)=O)c3F)ccc(F)c2s1` [Compound 151, 5-(3-(2-amino-7-fluorobenzo[d]thiazol-4-yl)-2-fluoro-6-hydroxyphenyl)-1,2,5-thiadiazolidin-3-one 1,1-dioxide], the IC50 in assay [1] was not above 1000 nM; in assay [2] it was more than 1000 nM.

For `O=C1CN(c2c(O)ccc(C3CCN(C4CC4)CC3)c2F)S(=O)(=O)N1` [Compound 353, 5-(3-(1-cyclopropylpiperidin-4-yl)-2-fluoro-6-hydroxyphenyl)-1,2,5-thiadiazolidin-3-one 1,1-dioxide], the IC50 in assay [1] and in assay [2] was not above 1000 nM throughout.

In the case of `Cn1nc(-c2ccc(O)c(N3CC(=O)NS3(=O)=O)c2F)cc1CCC#N` [Compound 432, 3-(3-(3-(1,1-dioxido-4-oxo-1,2,5-thiadiazolidin-2-yl)-2-fluoro-4-hydroxyphenyl)-1-methyl-1H-pyrazol-5-yl)propanenitrile], the IC50 in assay [1] and in assay [2] was not above 1000 nM in each case.

For `O=C1CN(c2c(O)ccc(-c3cc(C4(C(F)F)CC4)n[nH]3)c2F)S(=O)(=O)N1` [Compound 526, 5-(3-(3-(1-(difluoromethyl)cyclopropyl)-1H-pyrazol-5-yl)-2-fluoro-6-hydroxyphenyl)-1,2,5-thiadiazolidin-3-one 1,1-dioxide], the IC50 in assay [1] and in assay [2] was not above 1000 nM in each case.

With `COc1ccc(Cn2cc(-c3ccc(O)c(N4CC(=O)NS4(=O)=O)c3F)cn2)cc1` [Compound 172, 5-(2-fluoro-6-hydroxy-3-(1-(4-methoxybenzyl)-1H-pyrazol-4-yl)phenyl)-1,2,5-thiadiazolidin-3-one 1,1-dioxide], the IC50 in assay [1] and in assay [2] was not above 1000 nM each time.

As to `O=C1CN(c2c(O)ccc(-c3cn(CC4CCCCC4)cn3)c2F)S(=O)(=O)N1` [Compound 453, 5-(3-(1-(cyclohexylmethyl)-1H-imidazol-4-yl)-2-fluoro-6-hydroxyphenyl)-1,2,5-thiadiazolidin-3-one 1,1-dioxide], the IC50 in assay [1] and in assay [2] was not above 1000 nM throughout.

For `O=C1CN(c2c(O)ccc(-c3cc(N4CCC4)n[nH]3)c2F)S(=O)(=O)N1` [Compound 417, 5-(3-(3-(azetidin-1-yl)-1H-pyrazol-5-yl)-2-fluoro-6-hydroxyphenyl)-1,2,5-thiadiazolidin-3-one 1,1-dioxide], the IC50 in assay [1] and in assay [2] was not above 1000 nM in each case.
